Values quoted from earlier work as cited in US20170326139A1, “COMBINATION THERAPY FOR MALE SEXUAL DYSFUNCTION” (priority 2016, published 2017).
Read-outs that look alike come from different tables or passages of the source.

Assays:
premature ejaculation [1] = system: premature ejaculation
premature ejaculation [2] = conditions: in vivo
premature ejaculation [3] = system: premature ejaculation; remark: listed apart in the source

CN(C)CCCN1c2ccccc2CCc2ccc(Cl)cc21 [clomipramine]
effect in treating PE (premature ejaculation [1]; inhaled (nasal) 4 mg or 5 mg on-demand, e.g. one hour pre-coitus): effective in treating PE
effect on IELT (premature ejaculation [1]; orally administered daily at 10 to 50 mg per day): effectively increase IELT

CNCC[C@H](Oc1cccc2ccccc12)c1cccs1 [duloxetine]
effect on IELT (premature ejaculation [2]): some positive effect on IELT

CCCc1nn(C)c2c(=O)[nH]c(-c3cc(S(=O)(=O)N4CCN(C)CC4)ccc3OCC)nc12 [sildenafil]
effect on PE versus placebo (premature ejaculation [3]; sildenafil 50 mg pre-coitus administered alone): no better than placebo
IELT (premature ejaculation [3]; sildenafil 50 mg pre-coitus combined with behavioral psychotherapy): about 3.63 minutes
